The text below walks through data of ChEMBL document CHEMBL4020828, “Design and Syntheses of Highly Potent Teixobactin Analogues against Staphylococcus aureus, Methicillin-Resistant Staphylococcus aureus (MRSA), and Vancomycin-Resistant Enterococci (VRE) in Vitro and in Vivo” (J Med Chem, 2018).

SMILES strings stand for the structures. ≈ marks a conversion by molar mass, not a printed value. Positions of bridges follow the written chain, without caps; N, C: chain ends. Non-standard residues stand in square brackets, D forms with d. Residues, ends and D or L forms follow the SMILES beside them. dNMeF = CN[C@H](Cc1ccccc1)C(=O)O

The test system of test [1] is Staphylococcus aureus. Kind of test: Antibacterial activity against methicillin-resistant Staphylococcus aureus after 24 hrs. Type of test: functional.
The subject of test [2] is Staphylococcus aureus. Kind of test: Antibacterial activity against methicillin-sensitive Staphylococcus aureus after 24 hrs. Type of test: functional.
Test [3] deals with Staphylococcus saprophyticus. Kind of test: Antibacterial activity against Staphylococcus saprophyticus ATCC 49907 after 24 hrs. The class given is functional. To be noted: ATCC 49907, 24 h.
Test [4] has as its system Bacillus subtilis (Bacillus subtilis). Kind of test: Antibacterial activity against Bacillus subtilis ATCC 6633 after 24 hrs. The settings on record: ATCC 6633, 24 h.
The test system of test [5] is Enterococcus faecalis. Kind of test: Antibacterial activity against vancomycin-resistant Enterococcus faecalis isolate 1008 after 24 hrs. Type of test: functional. To be noted: isolate 1008, 24 h.
The test system of test [6] is Staphylococcus saprophyticus. Kind of test: Antibacterial activity against Staphylococcus saprophyticus ATCC 15305 after 24 hrs. Type of test: functional. To be noted: ATCC 15305, 24 h.
The test system of test [7] is Staphylococcus epidermidis. Kind of test: Antibacterial activity against Staphylococcus epidermidis 12228 after 24 hrs. The class given is functional. To be noted: Staphylococcus epidermidis, 12228, 24 h.
Test [8] concerns Enterococcus faecalis. Kind of test: Antibacterial activity against vancomycin-resistant Enterococcus faecalis isolate 1002 after 24 hrs. The class given is functional. The settings on record: isolate 1002, 24 h.
In test [9] the test system is Staphylococcus aureus. Kind of test: Antibacterial activity against methicillin-resistant Staphylococcus aureus isolate 21455 after 24 hrs. The class given is functional. To be noted: isolate 21455, 24 h.
In another test the test system is Bacillus cereus. Kind of test: Antibacterial activity against Bacillus cereus ATCC 11788 after 24 hrs. The class given is functional. The settings on record: ATCC 11788, 24 h.
In test [10] the test system is Enterococcus faecalis. Kind of test: Antibacterial activity against vancomycin-resistant Enterococcus faecalis isolate 1004 after 24 hrs. The class given is functional. To be noted: isolate 1004, 24 h.
In test [11] the test system is Staphylococcus saprophyticus. Kind of test: Antibacterial activity against Staphylococcus saprophyticus ATCC 49453 after 24 hrs. The class given is functional. The settings on record: ATCC 49453, 24 h.
In test [12] the test system is Staphylococcus saprophyticus. Kind of test: Antibacterial activity against Staphylococcus saprophyticus ATCC BAA 750 after 24 hrs. To be noted: ATCC BAA 750, 24 h. The class given is functional.
Test [13] relates to Staphylococcus aureus. Kind of test: Antibacterial activity against methicillin-resistant Staphylococcus aureus ATCC 700699 after 24 hrs. Type of test: functional. The settings on record: ATCC 700699, 24 h.
In test [14] the test system is Staphylococcus aureus. Kind of test: Antibacterial activity against methicillin-resistant Staphylococcus aureus ATCC 33591 after 24 hrs. Type of test: functional. To be noted: ATCC 33591, 24 h.
Test [15] relates to Staphylococcus aureus. Kind of test: Antibacterial activity against Staphylococcus aureus 4299 after 24 hrs. The settings on record: Staphylococcus aureus, 4299, 24 h. Type of test: functional.
Test [16] relates to Staphylococcus aureus. Kind of test: Antibacterial activity against Staphylococcus aureus ATCC 29213 after 24 hrs. The class given is functional. The settings on record: ATCC 29213, 24 h.
Test [17] concerns Enterococcus faecalis. Kind of test: Antibacterial activity against vancomycin-resistant Enterococcus faecalis ATCC 700802 after 24 hrs. The settings on record: ATCC 700802, 24 h. Type of test: functional.
Test [18] relates to Enterococcus faecalis. Kind of test: Antibacterial activity against vancomycin-resistant Enterococcus faecalis ATCC 29212 after 24 hrs. The class given is functional. To be noted: ATCC 29212, 24 h.
The test system of test [19] is Staphylococcus aureus. Kind of test: Antibacterial activity against methicillin-resistant Staphylococcus aureus isolate 1003 after 24 hrs. The class given is functional. To be noted: isolate 1003, 24 h.
In test [20] the test system is Staphylococcus aureus. Kind of test: Antibacterial activity against methicillin-resistant Staphylococcus aureus isolate 42412 after 24 hrs. Type of test: functional. To be noted: isolate 42412, 24 h.
The subject of test [21] is Enterococcus faecalis. Kind of test: Antibacterial activity against vancomycin-resistant Enterococcus faecalis isolate 1001 after 24 hrs. Type of test: functional. To be noted: isolate 1001, 24 h.
In test [22] the test system is Staphylococcus aureus. Kind of test: Antibacterial activity against methicillin-sensitive Staphylococcus aureus. Type of test: functional.
Test [23] concerns Staphylococcus aureus. Kind of test: Antibacterial activity against methicillin-resistant Staphylococcus aureus. The class given is functional.

On to `CC[C@@H](C)[C@@H](NC(=O)[C@@H](CCC(N)=O)NC(=O)[C@H](CO)NC(=O)[C@@H](NC(=O)[C@@H](Cc1ccccc1)NC)[C@@H](C)CC)C(=O)N[C@H](C(=O)N[C@@H](CO)C(=O)N[C@H]1C(=O)N[C@@H](C)C(=O)N[C@@H](C)C(=O)N[C@@H]([C@@H](C)CC)C(=O)O[C@H]1C)[C@@H](C)CC`, for which the MIC against Staphylococcus aureus [1] is 1 to 2 µg/mL (≈ 0.863 to 1.73 µM); against Staphylococcus aureus [2], 1 µg/mL (≈ 0.863 µM).
Consider `CC[C@@H](C)[C@@H](NC(=O)[C@@H](CCC(N)=O)NC(=O)[C@H](CCCNC(=N)N)NC(=O)[C@@H](NC(=O)[C@@H](Cc1ccccc1)NC)[C@@H](C)CC)C(=O)N[C@H](C(=O)N[C@@H](CO)C(=O)N[C@H]1C(=O)N[C@@H](C)C(=O)N[C@@H](CC(C)C)C(=O)N[C@@H]([C@@H](C)CC)C(=O)O[C@H]1C)[C@@H](C)CC` (H-[dNMeF]IR[dQ][dI]IS[dT]ALI; ester 8-C), for which the MIC was less than 0.0625 µg/mL in test [3]; less than 0.0625 µg/mL in [4]; 0.125 µg/mL (≈ 0.0984 µM) in the test with Enterococcus faecalis [5]; less than 0.0625 µg/mL in [6]; less than 0.0625 µg/mL in [7]; 0.5 µg/mL (≈ 0.394 µM) with Enterococcus faecalis [8]. Further, the MIC against Staphylococcus aureus [9] was 0.0312 µg/mL (≈ 0.0246 µM); with Bacillus cereus, less than 0.0625 µg/mL; against Enterococcus faecalis [10], less than 0.0625 µg/mL; in test [11], less than 0.0625 µg/mL; in test [12], less than 0.0625 µg/mL; against Staphylococcus aureus [13], 0.5 µg/mL (≈ 0.394 µM). Also, the MIC is 0.125 µg/mL (≈ 0.0984 µM) against Staphylococcus aureus [14]; 0.125 µg/mL (≈ 0.0984 µM) in the test with Staphylococcus aureus [15]; 0.25 µg/mL (≈ 0.197 µM) against Staphylococcus aureus [16]; 0.5 µg/mL (≈ 0.394 µM) against Enterococcus faecalis [17]; 0.5 µg/mL (≈ 0.394 µM) against Enterococcus faecalis [18]; less than 0.0625 µg/mL in the test on Staphylococcus aureus [19]. In addition, the MIC was less than 0.0625 µg/mL in the test with Staphylococcus aureus [20] and 0.25 µg/mL (≈ 0.197 µM) against Enterococcus faecalis [21].
On to `CC[C@@H](C)[C@@H](NC(=O)[C@@H](CCC(N)=O)NC(=O)[C@H](CO)NC(=O)[C@@H](NC(=O)[C@@H](Cc1ccccc1)NC)[C@@H](C)CC)C(=O)N[C@H](C(=O)N[C@@H](CO)C(=O)N[C@H]1C(=O)N[C@@H](C)C(=O)N[C@@H](C(C)C)C(=O)N[C@@H]([C@@H](C)CC)C(=O)O[C@H]1C)[C@@H](C)CC`, for which the MIC in the test on Staphylococcus aureus [1] came out at 0.5 µg/mL (≈ 0.421 µM); with Staphylococcus aureus [2], 0.25 µg/mL (≈ 0.211 µM).
Consider `CC[C@@H](C)[C@@H](NC(=O)[C@@H](CCC(N)=O)NC(=O)[C@H](CO)NC(=O)[C@@H](NC(=O)[C@@H](Cc1ccccc1)NC)[C@@H](C)CC)C(=O)N[C@H](C(=O)N[C@@H](CO)C(=O)N[C@H]1C(=O)N[C@@H](C)C(=O)N[C@@H](CCCNC(=N)N)C(=O)N[C@@H]([C@@H](C)CC)C(=O)O[C@H]1C)[C@@H](C)CC`, for which the MIC in the test on Staphylococcus aureus [22] and with Staphylococcus aureus [23] was 2 µg/mL (≈ 1.61 µM) each time.
Turning to `CC[C@@H](C)[C@@H](NC(=O)[C@@H](CCC(N)=O)NC(=O)[C@H](CO)NC(=O)[C@@H](NC(=O)[C@@H](Cc1ccccc1)NC)[C@@H](C)CC)C(=O)N[C@H](C(=O)N[C@@H](CO)C(=O)N[C@H]1C(=O)N[C@@H](C)C(=O)N[C@@H](Cc2ccccc2)C(=O)N[C@@H]([C@@H](C)CC)C(=O)O[C@H]1C)[C@@H](C)CC`, the MIC in the test on Staphylococcus aureus [1] is 2 µg/mL (≈ 1.62 µM).
As to `CC[C@@H](C)[C@@H](NC(=O)[C@@H](CCC(N)=O)NC(=O)[C@H](CO)NC(=O)[C@@H](NC(=O)[C@@H](Cc1ccccc1)NC)[C@@H](C)CC)C(=O)N[C@H](C(=O)N[C@@H](CO)C(=O)N[C@H]1C(=O)N[C@@H](CCCNC(=N)N)C(=O)N[C@@H]([C@@H](C)CC)C(=O)N[C@@H]([C@@H](C)CC)C(=O)O[C@H]1C)[C@@H](C)CC`, the MIC in test [3] is less than 0.0625 µg/mL; in [4], 0.125 µg/mL (≈ 0.0972 µM); against Enterococcus faecalis [5] it was 1 µg/mL (≈ 0.777 µM); in test [6], less than 0.0625 µg/mL; in [7] it was less than 0.0625 µg/mL; against Enterococcus faecalis [8], 1 µg/mL (≈ 0.777 µM). Further, the MIC in the test with Staphylococcus aureus [9] is 0.5 µg/mL (≈ 0.389 µM); with Bacillus cereus, 0.5 µg/mL (≈ 0.389 µM); with Enterococcus faecalis [10], 1 µg/mL (≈ 0.777 µM); in test [11] it was less than 0.0625 µg/mL; in test [12], less than 0.0625 µg/mL; with Staphylococcus aureus [13], 1 µg/mL (≈ 0.777 µM). The MIC in the test on Staphylococcus aureus [14] was found to be 0.25 µg/mL (≈ 0.194 µM); against Staphylococcus aureus [15] it was 1 µg/mL (≈ 0.777 µM); in the test with Staphylococcus aureus [16], 1 µg/mL (≈ 0.777 µM); in the test with Enterococcus faecalis [17], 1 µg/mL (≈ 0.777 µM); in the test with Enterococcus faecalis [18], 1 µg/mL (≈ 0.777 µM); with Staphylococcus aureus [19], 0.5 µg/mL (≈ 0.389 µM). Besides, the values for the MIC against Staphylococcus aureus [20] and in the test with Enterococcus faecalis [21] were 0.125 µg/mL (≈ 0.0972 µM) and 1 µg/mL (≈ 0.777 µM), respectively.
